Data set [1] concerns Normal human dermal fibroblasts (NHDF). The data set can be described thus: Hyaluronic acid production promoting effect (ELISA of hyaluronic acid in supernatant). It is filed as cell-based. Particulars: 10 mM or less, 48 hours, control group set to 100%, N=3. The gist of the method: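 NHDF seeded at 2.5×10^4 cells/well in D-MEM with 5% FBS, pre-incubated 24 h, then exposed to samples in serum-free D-MEM for 48 h. Supernatant hyaluronic acid measured by ELISA in triplicate, expressed as % of control (100%) at ≤10 mM sample.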
In general terms: In an ELISA, binding on a coated surface is turned into a signal by an enzyme label.

Data set [2] can be described thus: Stability Test-2: residual rate in cream of pH 7 or 9 stored at 50° C. It is filed as physicochemical. The gist of the method: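 Each test sample was formulated into a cream adjusted to pH 7 or 9: components (a) and (b) were heated and mixed separately, cooled, and then component (c) was added. The cream was held at 50° C., and the percentage of the sample compound still present (residual rate) was determined after storage.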

Data set [3] deals with Normal human dermal fibroblasts. As to the kind of experiment: Collagen production promoting effect (ELISA of free collagen in supernatant). It is filed as cell-based. Particulars: 10 mM or less, 48 hours, control group set to 100%, N=3. The protocol:
Normal human dermal fibroblasts were prepared in D-MEM containing 5% (v/v) fetal bovine serum to a cell density of 2.5×10^4 cells/well, and then pre-incubated for 24 hours on a 96-well plate. After removing the medium, samples prepared to a predetermined concentration in D-MEM containing 5% (v/v) fetal bovine serum were added to each well and cultured for 48 hours. After the culture was completed, the amount of free collagen in the supernatant was quantified by ELISA. Measurements were performed in triplicate (N=3).
The amount of collagen produced when the sample was measured at a concentration of 10 mM or less was compared with that of the control group, and the results (% values when the control group was set to 100%) are shown in Table 17 based on the following criteria.

Data set [4] has as its system Normal human epidermal keratinocytes. The data set can be described thus: Antioxidant effect: ROS production inhibition rate (DCFHDA, H2O2). It is filed as cell-based. To be noted: 10 mM or less, 24 hours incubation, 0.2 mM H2O2, N=4. The procedure: Normal human epidermal keratinocytes were seeded onto a 96-well plate using KG2 medium at a cell density of 2.0×10^4 cells/well. After 24 hours of pre-incubation, samples adjusted to a predetermined concentration in KG2 medium were added to each well. After 24 hours of incubation, the medium was removed, followed by washing with HBSS(−) and the incorporation of the ROS-reactive fluorescent probe DCFHDA for 30 minutes. The cells were again washed with HBSS(−), treated with 0.2 mM H2O2, and incubated for 2 hours. The fluorescence intensity was measured, and the amount of ROS produced per unit protein was calculated by dividing the fluorescence intensity by the amount of protein quantified by the BCA method, resulting in an analytical value of 1. Furthermore, the amount of ROS production calculated without adding the sample adjusted to a predetermined concentration using the above test method was set to analytical value 2; and the amount of ROS production calculated without adding the sample or 0.2 mM H2O2 was set to analytical value 3.
ROS production inhibition rate (%) was calculated using the following formula. The higher the ROS production inhibition rate, the greater the antioxidant effect can be evaluated to be.
The ROS production inhibition rate when the sample was measured at a concentration of 10 mM or less was evaluated as follows. Note that the measurement was performed in N=4.

The nature of data set [5]: Stability Test-2: odor of cream stored at 50° C. It is filed as physicochemical. Particulars: 10 panelists. The gist of the method: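 Test creams were made by heating and mixing components (a) and (b), cooling, then adding component (c) to give a pH of 7 or 9. After storage at 50° C., 10 panelists scored odor: 3 almost odorless, 2 slight strange odor, 1 strong odor. Totals were graded ◯ (25 or more), Δ (16-24) or x (15 or less).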

Data set [6] in a line: Stability Test-2: coloration of cream stored at 50° C. Particulars: 10 panelists. It is filed as physicochemical. An outline of the steps: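 Creams were made by heating and mixing parts (a) and (b), cooling, then adding part (c), adjusting pH to 7 or 9. After storage at 50° C., ten panelists scored coloration against the freshly prepared cream: 3 for almost no change, 2 for color change, 1 for strong coloration.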

The nature of data set [7]: Stability Test-1: residual rate of 1% aqueous solutions stored at 50° C. (HPLC). Particulars: water, 1% aqueous solution; for remaining at 336 h: after 2 weeks, read-out: Residual Rate; for remaining at 672 h: after 4 weeks. It is filed as physicochemical. The procedure:
(§1) For each of the samples of Synthesis Examples 1 to 6, 1% aqueous solutions were adjusted to pH 3, 5, 7, 8, and 9 with a dilute potassium hydroxide aqueous solution, and then placed in 50 mL screw tubes and sealed. […] Furthermore, the odor and coloration of the samples adjusted to pH 7 were evaluated based on the following methods and criteria, and the results are shown in Table 11.
• ⊚: 80% or more • ◯: 50% or more, less than 80% • Δ: 30% or more, less than 50% • x: Less than 30%

The nature of data set [8]: Stability Test-1: coloration of 1% aqueous solutions adjusted to pH 7 stored at 50° C. It is filed as physicochemical. Particulars: 1% aqueous solution pH 7, 50° C., 10 panelists. The protocol:
as §1
• Evaluation was made by 10 panelists according to the following criteria. • 3: Almost no change compared to immediately after preparation. • 2: Color changes compared to immediately after preparation. • 1: Strongly colored compared to immediately after preparation. • Based on the results of the above evaluation, the following classification was made: […]

A short description of data set [9]: Stability Test-1: odor of 1% aqueous solutions adjusted to pH 7 stored at 50° C. It is filed as physicochemical. Particulars: 1% aqueous solution pH 7, 50° C., 10 panelists. The procedure:
as §1
• Evaluation was made by 10 panelists according to the following criteria. • 3: Almost odorless. • 2: There is a slight strange odor. • 1: A strong odor is detected. • Based on the results of the above evaluation, the following classification was made: • ◯: Total score of 10 panelists is 25 or more • Δ: Total score of 10 panelists is 16-24 • x: The total score of 10 panelists is 15 or less

Setting [10] is: cream pH 7, 50° C., after 2 weeks, 20160 min.
The mark [11] stands for this setting: cream pH 7, 50° C., after 4 weeks, 40320 min.
Setting [12] is: cream pH 9, 50° C., after 2 weeks, 20160 min.
[13] abbreviates: cream pH 9, 50° C., after 4 weeks, 40320 min.

SMILES strings stand for the structures. Where two headings read alike, the source gives them in different places. Bounds are passed on as bounds.

With `CC(C)CCCCCCCCCCCCCCC(=O)OC[C@H](O)[C@H]1OC(=O)C2=C1OCCCCO2` [Synthesis Example 17, 6-O-isostearoyl-2,3-O-(1,4-butanediyl) ascorbic acid], the “Hyaluronic acid production-promoting effect” value in [1] is recorded as “++ (120%<)”. The “Residual Rate” value in data set [2] (setting [10]), in data set [2] (setting [11]), in data set [2] (setting [12]) and in [2] (setting [13]) was “⊚ (95% or more)” throughout. Moreover, in [3], the Collagen production-promoting effect entry is “++ (140%<)”. Further, in data set [4], the “Antioxidant effect (ROS production inhibition rate)” value is listed as “+ (<20%)”. Also, the Odor entry in data set [5] (after 2 weeks) was “◯ (Total score of 10 panelists is 25 or more)”; in data set [5] (after 4 weeks), “Δ (Total score of 10 panelists is 16-24)”. Also, the Coloration result in [6] (after 2 weeks) and in data set [6] (after 4 weeks) was “◯ (Total score of 10 panelists is 25 or more)” each time.
`O=C1OC(C(O)CO)C2=C1OCC1(COC1)CO2` (stereo not shown) [Synthesis Example 6, 2,3-O-(3,3-dimethyleneoxetane) ascorbic acid]: the “Hyaluronic acid production-promoting effect” value in [1] is on record as “++ (120%<)”. In addition, in data set [3], the Collagen production-promoting effect result is “++ (140%<)”. Besides, the remaining at 336 h was at least 80% in [7] (pH 3, 50° C.); at least 80% in data set [7] (pH 5, 50° C.); 50 to 80% in data set [7] (pH 7, 50° C.); 50 to 80% in data set [7] (pH 8, 50° C.); 50 to 80% in [7] (pH 9, 50° C.). Further, the remaining at 672 h in data set [7] (pH 3, 50° C.) is at least 80%; in [7] (pH 5, 50° C.), at least 80%; in [7] (pH 7, 50° C.), 50 to 80%; in data set [7] (pH 8, 50° C.), 30 to 50%; in [7] (pH 9, 50° C.) it was 30 to 50%. Further, the Coloration entry in data set [8] (after 2 weeks) and in data set [8] (after 4 weeks) was “∘ (Total score of 10 panelists is 25 or more)” each time. Further, the Odor entry in [9] (after 2 weeks) and in [9] (after 4 weeks) was “∘ (Total score of 10 panelists is 25 or more)” throughout.
As to `CCCCCCCCCCCC(=O)OCC(O)C1OC(=O)C2=C1OCCCCO2` (stereo not shown) [Synthesis Example 13, 6-O-lauroyl-2,3-O-(1,4-butanediyl) ascorbic acid], the “Hyaluronic acid production-promoting effect” value in [1] is recorded as “++ (120%<)”. Moreover, the “Residual Rate” value in data set [2] (setting [10]), in data set [2] (setting [11]), in data set [2] (setting [12]) and in data set [2] (setting [13]) was “⊚ (95% or more)” throughout. The “Antioxidant effect (ROS production inhibition rate)” value in data set [4] was “+ (<20%)”. The Odor result in data set [5] (after 2 weeks) was “◯ (Total score of 10 panelists is 25 or more)”; in data set [5] (after 4 weeks), “Δ (Total score of 10 panelists is 16-24)”. Also, the Coloration entry in data set [6] (after 2 weeks) and in [6] (after 4 weeks) was “◯ (Total score of 10 panelists is 25 or more)” in each case.
In the case of `CCCCCCCC(=O)OCC(OC(=O)CCCCCCC)C1OC(=O)C2=C1OCCCO2` (stereo not shown) [Synthesis Example 23, 5,6-O-dioctanoyl-2,3-O-(1,3-propanediyl) ascorbic acid], the “Residual Rate” value in data set [2] (setting [10]), in data set [2] (setting [11]), in [2] (setting [12]) and in data set [2] (setting [13]) was “⊚ (95% or more)” in each case. In data set [3], the Collagen production-promoting effect result is listed as “++ (140%<)”. Further, the “Antioxidant effect (ROS production inhibition rate)” value in [4] is listed as “+ (<20%)”. Moreover, the values for the Odor entry in [5] (after 2 weeks) and in data set [5] (after 4 weeks) were “◯ (Total score of 10 panelists is 25 or more)” and “Δ (Total score of 10 panelists is 16-24)”, respectively. Moreover, the Coloration result in data set [6] (after 2 weeks) and in [6] (after 4 weeks) was “◯ (Total score of 10 panelists is 25 or more)” each time.
On to `CCCCCCCCCCCC(=O)OCC(OC(=O)CCCCCCCCCCC)C1OC(=O)C2=C1OCCCCO2` (stereo not shown) [Synthesis Example 14, 5,6-O-dilauroyl-2,3-O-(1,4-butanediyl) ascorbic acid], for which the “Hyaluronic acid production-promoting effect” value in data set [1] was “++ (120%<)”. Further, the “Residual Rate” value in data set [2] (setting [10]) is given as “⊚ (95% or more)”; in data set [2] (setting [11]) it was “⊚ (95% or more)”; in data set [2] (setting [12]), “⊚ (95% or more)”; in data set [2] (setting [13]) it was “∘ (85% or more, less than 95%)”. Moreover, the “Antioxidant effect (ROS production inhibition rate)” value in data set [4] was “+ (<20%)”. Also, the Odor result in data set [5] (after 2 weeks) is recorded as “◯ (Total score of 10 panelists is 25 or more)”; in data set [5] (after 4 weeks) it was “Δ (Total score of 10 panelists is 16-24)”. Moreover, the Coloration entry in [6] (after 2 weeks) and in data set [6] (after 4 weeks) was “◯ (Total score of 10 panelists is 25 or more)” throughout.
With `O=C1OC(C(O)CO)C2=C1OCCCO2` (stereo not shown) [Synthesis Example 2, 2,3-O-(1,3-propanediyl) ascorbic acid], the “Hyaluronic acid production-promoting effect” value in data set [1] was “++ (120%<)”. Also, the Collagen production-promoting effect result in data set [3] is reported as “++ (140%<)”. In addition, the remaining at 336 h in data set [7] (pH 3, 50° C.) is at least 80%; in data set [7] (pH 5, 50° C.), at least 80%; in data set [7] (pH 7, 50° C.) it was at least 80%; in [7] (pH 8, 50° C.), at least 80%; in data set [7] (pH 9, 50° C.), 50 to 80%. The remaining at 672 h in [7] (pH 3, 50° C.) was at least 80%; in [7] (pH 5, 50° C.) it was at least 80%; in data set [7] (pH 7, 50° C.), at least 80%; in [7] (pH 8, 50° C.), 50 to 80%; in [7] (pH 9, 50° C.), 30 to 50%. The Coloration entry in data set [8] (after 2 weeks) and in [8] (after 4 weeks) was “∘ (Total score of 10 panelists is 25 or more)” throughout. Moreover, the results for the Odor entry in [9] (after 2 weeks) and in data set [9] (after 4 weeks) were “∘ (Total score of 10 panelists is 25 or more)” and “Δ (Total score of 10 panelists is 16-24)”, respectively.

Values taken from patent publication US20260294769A1, “ASCORBIC ACID DERIVATIVES AND COSMETIC THEREOF” (SEIWA KASEI COMPANY, LIMITED, priority 2023, published 2026).
